Results from patent US20170050957A1, “4-AMINO-6-(HETEROCYCLIC)PICOLINATES AND 6-AMINO-2-(HETEROCYCLIC)PYRIMIDINE-4-CARBOXYLATES AND THEIR USE AS HERBICIDES” (Dow AgroSciences LLC, priority 2013, published 2017).
Read-outs that look alike come from different tables or passages of the source.

Assays:
[1] = system: Key Grass and Sedge Weeds as well as Grass Crops; assay: Post-emergent Test II herbicidal activity (Table 16); format: in vivo; settings: post-emergence, 336 h, 14 d; for pest or weed control at 35 g/ha: 35 g ai/ha; for pest or weed control at 70 g/ha: 70 g ai/ha; for pest or weed control at 140 g/ha: 140 g ai/ha
Summary of the method: (§1)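 Greenhouse-grown seedlings at first/second true leaf receive a track spray at 187 L/ha, using a highest rate plus two-fold serial dilutions down to 1/16×. Watering is by subirrigation to avoid wash-off. Percent injury (0-100) is judged by eye at 14 d against untreated plants.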

[2] = system: Key Broadleaf Weed and Crop Species; assay: Post-emergent Test II herbicidal activity (Table 15); format: in vivo; settings: post-emergence, 336 h, 14 d; for pest or weed control at 35 g/ha: 35 g ai/ha; for pest or weed control at 70 g/ha: 70 g ai/ha; for pest or weed control at 140 g/ha: 140 g ai/ha
Summary of the method: as §1

[3] = Cyperus esculentus, yellow nutsedge (Cyperus esculentus), read-out: Visual Growth Reduction (%) 14 Days After Application, CYPES
[4] = Echinochloa crus-galli, barnyardgrass (Echinochloa crus-galli), read-out: Visual Growth Reduction (%) 14 Days After Application, ECHCG
[5] = Oryza sativa, rice (Oryza sativa), read-out: Visual Growth Reduction (%) 14 Days After Application, ORYSA
[6] = Setaria faberi, giant foxtail (Setaria faberi), read-out: Visual Growth Reduction (%) 14 Days After Application, SETFA
[7] = Triticum aestivum, wheat, spring (Triticum aestivum), read-out: Visual Growth Reduction (%) 14 Days After Application, TRZAS
[8] = Zea mays, maize, corn (Zea mays), read-out: Visual Growth Reduction (%) 14 Days After Application, ZEAMX
[9] = Abutilon theophrasti, velvetleaf (Abutilon theophrasti), read-out: Visual Growth Reduction (%) 14 Days After Application, ABUTH
[10] = Amaranthus retroflexus, redroot pigweed (Amaranthus retroflexus), read-out: Visual Growth Reduction (%) 14 Days After Application, AMARE
[11] = Brassica napus, oilseed rape, canola (Brassica napus), read-out: Visual Growth Reduction (%) 14 Days After Application, BRSNN
[12] = Chenopodium album, lambsquarters (Chenopodium album), read-out: Visual Growth Reduction (%) 14 Days After Application, CHEAL
[13] = Euphorbia heterophylla, wild poinsettia (Euphorbia heterophylla), read-out: Visual Growth Reduction (%) 14 Days After Application, EPHHL
[14] = Helianthus annuus, sunflower (Helianthus annuus), read-out: Visual Growth Reduction (%) 14 Days After Application, HELAN

COc1c(N)nc(-c2ccc3cc[nH]c3c2F)nc1C(=O)O [Compound 1.35]
pest or weed control at 35 g/ha [1, 3]: 0 to 29%
pest or weed control at 70 g/ha [1, 3]: 0 to 29%
pest or weed control at 140 g/ha [1, 3]: 0 to 29%
pest or weed control at 35 g/ha [1, 4]: 0 to 29%
pest or weed control at 70 g/ha [1, 4]: 0 to 29%
pest or weed control at 140 g/ha [1, 4]: 0 to 29%
pest or weed control at 35 g/ha [1, 5]: 0 to 29%
pest or weed control at 70 g/ha [1, 5]: 0 to 29%
pest or weed control at 140 g/ha [1, 5]: 0 to 29%
pest or weed control at 35 g/ha [1, 6]: 0 to 29%
pest or weed control at 70 g/ha [1, 6]: 0 to 29%
pest or weed control at 140 g/ha [1, 6]: 0 to 29%
pest or weed control at 35 g/ha [1, 7]: 0 to 29%
pest or weed control at 70 g/ha [1, 7]: 30 to 44%
pest or weed control at 140 g/ha [1, 7]: 45 to 59%
pest or weed control at 35 g/ha [1, 8]: 0 to 29%
pest or weed control at 70 g/ha [1, 8]: 0 to 29%
pest or weed control at 140 g/ha [1, 8]: 0 to 29%
pest or weed control at 35 g/ha [2, 9]: 0 to 29%
pest or weed control at 70 g/ha [2, 9]: 0 to 29%
pest or weed control at 140 g/ha [2, 9]: 0 to 29%
pest or weed control at 35 g/ha [2, 10]: 75 to 84%
pest or weed control at 70 g/ha [2, 10]: 85 to 94%
pest or weed control at 140 g/ha [2, 10]: 95 to 100%
pest or weed control at 35 g/ha [2, 11]: 95 to 100%
pest or weed control at 70 g/ha [2, 11]: 95 to 100%
pest or weed control at 140 g/ha [2, 11]: 95 to 100%
pest or weed control at 35 g/ha [2, 12]: 0 to 29%
pest or weed control at 70 g/ha [2, 12]: 0 to 29%
pest or weed control at 140 g/ha [2, 12]: 85 to 94%
pest or weed control at 35 g/ha [2, 13]: 75 to 84%
pest or weed control at 70 g/ha [2, 13]: 75 to 84%
pest or weed control at 140 g/ha [2, 13]: 85 to 94%
pest or weed control at 35 g/ha [2, 14]: 30 to 44%
pest or weed control at 70 g/ha [2, 14]: 60 to 74%
pest or weed control at 140 g/ha [2, 14]: 95 to 100%

COc1c(N)nc(-c2cc3[nH]ccc3cc2F)nc1C(=O)O [Compound 1.37]
pest or weed control at 35 g/ha [1, 3]: 0 to 29%
pest or weed control at 70 g/ha [1, 3]: 0 to 29%
pest or weed control at 140 g/ha [1, 3]: 0 to 29%
pest or weed control at 35 g/ha [1, 4]: 0 to 29%
pest or weed control at 70 g/ha [1, 4]: 0 to 29%
pest or weed control at 140 g/ha [1, 4]: 0 to 29%
pest or weed control at 35 g/ha [1, 5]: 0 to 29%
pest or weed control at 70 g/ha [1, 5]: 0 to 29%
pest or weed control at 140 g/ha [1, 5]: 0 to 29%
pest or weed control at 35 g/ha [1, 6]: 0 to 29%
pest or weed control at 70 g/ha [1, 6]: 0 to 29%
pest or weed control at 140 g/ha [1, 6]: 0 to 29%
pest or weed control at 35 g/ha [1, 7]: 0 to 29%
pest or weed control at 70 g/ha [1, 7]: 0 to 29%
pest or weed control at 140 g/ha [1, 7]: 0 to 29%
pest or weed control at 35 g/ha [1, 8]: 0 to 29%
pest or weed control at 70 g/ha [1, 8]: 0 to 29%
pest or weed control at 140 g/ha [1, 8]: 0 to 29%
pest or weed control at 35 g/ha [2, 9]: 0 to 29%
pest or weed control at 70 g/ha [2, 9]: 0 to 29%
pest or weed control at 140 g/ha [2, 9]: 0 to 29%
pest or weed control at 35 g/ha [2, 10]: 0 to 29%
pest or weed control at 70 g/ha [2, 10]: 0 to 29%
pest or weed control at 140 g/ha [2, 10]: 0 to 29%
pest or weed control at 35 g/ha [2, 11]: 30 to 44%
pest or weed control at 70 g/ha [2, 11]: 60 to 74%
pest or weed control at 140 g/ha [2, 11]: 75 to 84%
pest or weed control at 35 g/ha [2, 12]: 0 to 29%
pest or weed control at 70 g/ha [2, 12]: 0 to 29%
pest or weed control at 140 g/ha [2, 12]: 0 to 29%
pest or weed control at 35 g/ha [2, 13]: 0 to 29%
pest or weed control at 70 g/ha [2, 13]: 0 to 29%
pest or weed control at 140 g/ha [2, 13]: 0 to 29%
pest or weed control at 35 g/ha [2, 14]: 0 to 29%
pest or weed control at 70 g/ha [2, 14]: 0 to 29%
pest or weed control at 140 g/ha [2, 14]: 0 to 29%

COC(=O)c1nc(-c2ccc(Cl)c3[nH]ccc23)c(F)c(N)c1Cl [Compound 1.43]
pest or weed control at 35 g/ha [1, 3]: 0 to 29%
pest or weed control at 70 g/ha [1, 3]: 0 to 29%
pest or weed control at 140 g/ha [1, 3]: 0 to 29%
pest or weed control at 35 g/ha [1, 4]: 0 to 29%
pest or weed control at 70 g/ha [1, 4]: 0 to 29%
pest or weed control at 140 g/ha [1, 4]: 0 to 29%
pest or weed control at 35 g/ha [1, 5]: 0 to 29%
pest or weed control at 70 g/ha [1, 5]: 0 to 29%
pest or weed control at 140 g/ha [1, 5]: 0 to 29%
pest or weed control at 35 g/ha [1, 6]: 0 to 29%
pest or weed control at 70 g/ha [1, 6]: 0 to 29%
pest or weed control at 140 g/ha [1, 6]: 0 to 29%
pest or weed control at 35 g/ha [1, 7]: 0 to 29%
pest or weed control at 70 g/ha [1, 7]: 0 to 29%
pest or weed control at 140 g/ha [1, 7]: 0 to 29%
pest or weed control at 35 g/ha [1, 8]: 0 to 29%
pest or weed control at 70 g/ha [1, 8]: 0 to 29%
pest or weed control at 140 g/ha [1, 8]: 0 to 29%
pest or weed control at 35 g/ha [2, 9]: 0 to 29%
pest or weed control at 70 g/ha [2, 9]: 0 to 29%
pest or weed control at 140 g/ha [2, 9]: 60 to 74%
pest or weed control at 35 g/ha [2, 10]: 95 to 100%
pest or weed control at 70 g/ha [2, 10]: 95 to 100%
pest or weed control at 140 g/ha [2, 10]: 95 to 100%
pest or weed control at 35 g/ha [2, 11]: 0 to 29%
pest or weed control at 70 g/ha [2, 11]: 0 to 29%
pest or weed control at 140 g/ha [2, 11]: 0 to 29%
pest or weed control at 35 g/ha [2, 12]: 75 to 84%
pest or weed control at 70 g/ha [2, 12]: 85 to 94%
pest or weed control at 140 g/ha [2, 12]: 85 to 94%
pest or weed control at 35 g/ha [2, 13]: 0 to 29%
pest or weed control at 70 g/ha [2, 13]: 0 to 29%
pest or weed control at 140 g/ha [2, 13]: 30 to 44%
pest or weed control at 35 g/ha [2, 14]: 60 to 74%
pest or weed control at 70 g/ha [2, 14]: 75 to 84%
pest or weed control at 140 g/ha [2, 14]: 75 to 84%
